From the NIST ThermoML archive (doi:10.1021/je900757k)

Assay: isobaric coefficient of expansion
Conditions: Liquid, DSC

ClC(Cl)(Cl)Cl [tetrachloromethane]
isobaric coefficient of expansion
Conditions	278.15 K	288.15 K	298.15 K	308.15 K	318.15 K	328.15 K	338.15 K	348.15 K
5000 kPa	0.00114 1/K	0.00116 1/K	0.00119 1/K	0.00121 1/K	0.00124 1/K	0.00126 1/K	0.0013 1/K	0.00132 1/K
10000 kPa	0.00112 1/K	0.00113 1/K	0.00116 1/K	0.00117 1/K	0.0012 1/K	0.00122 1/K	0.00125 1/K	0.00126 1/K
15000 kPa	0.00108 1/K	0.0011 1/K	0.00113 1/K	0.00114 1/K	0.00116 1/K	0.00118 1/K	0.00119 1/K	0.00121 1/K
20000 kPa	0.00106 1/K	0.00108 1/K	0.00109 1/K	0.00111 1/K	0.00113 1/K	0.00114 1/K	0.00115 1/K	0.00116 1/K
25000 kPa	0.00104 1/K	0.00105 1/K	0.00107 1/K	0.00108 1/K	0.00109 1/K	0.0011 1/K	0.00111 1/K	0.00112 1/K
30000 kPa	0.00102 1/K	0.00103 1/K	0.00104 1/K	0.00105 1/K	0.00106 1/K	0.00107 1/K	0.00108 1/K	0.00109 1/K
35000 kPa	0.001 1/K	0.00101 1/K	0.00102 1/K	0.00103 1/K	0.00104 1/K	0.00104 1/K	0.00105 1/K	0.00105 1/K
40000 kPa	0.000979 1/K	0.000985 1/K	0.000996 1/K	0.00101 1/K	0.00101 1/K	0.00101 1/K	0.00102 1/K	0.00102 1/K
45000 kPa	0.000959 1/K	0.000967 1/K	0.000978 1/K	0.000978 1/K	0.000986 1/K	0.000986 1/K	0.000988 1/K	0.000993 1/K
50000 kPa	0.000943 1/K	0.000949 1/K	0.000955 1/K	0.000959 1/K	0.00097 1/K	0.000965 1/K	0.000967 1/K	0.000969 1/K
55000 kPa	0.000936 1/K	0.00093 1/K	0.000935 1/K	0.00094 1/K	0.00095 1/K	0.000946 1/K	0.000945 1/K	0.000947 1/K

CCCCCCCCCCCCCC [tetradecane]
isobaric coefficient of expansion
Conditions	298.15 K	308.15 K	318.15 K	328.15 K	338.15 K	348.15 K
5000 kPa	0.000909 1/K	0.000913 1/K	0.000918 1/K	0.000922 1/K	0.000931 1/K	0.000941 1/K
10000 kPa	0.000881 1/K	0.000884 1/K	0.00089 1/K	0.00089 1/K	0.000897 1/K	0.0009 1/K
15000 kPa	0.00086 1/K	0.000861 1/K	0.000863 1/K	0.000859 1/K	0.000863 1/K	0.000867 1/K
20000 kPa	0.000837 1/K	0.000836 1/K	0.000837 1/K	0.000833 1/K	0.000835 1/K	0.000839 1/K
25000 kPa	0.000815 1/K	0.000814 1/K	0.000815 1/K	0.00081 1/K	0.00081 1/K	0.000812 1/K
30000 kPa	0.000798 1/K	0.000793 1/K	0.000791 1/K	0.000789 1/K	0.000789 1/K	0.000789 1/K
35000 kPa	0.00078 1/K	0.000777 1/K	0.000774 1/K	0.00077 1/K	0.000768 1/K	0.000768 1/K
40000 kPa	0.000764 1/K	0.000761 1/K	0.000756 1/K	0.000753 1/K	0.000749 1/K	0.000747 1/K
45000 kPa	0.00075 1/K	0.000742 1/K	0.000738 1/K	0.000735 1/K	0.000732 1/K	0.000726 1/K
50000 kPa	0.000737 1/K	0.00073 1/K	0.000722 1/K	0.00072 1/K	0.000718 1/K	0.000711 1/K
55000 kPa	0.000725 1/K	0.000719 1/K	0.000714 1/K	0.000709 1/K	0.000705 1/K	0.000699 1/K
